# Assay results: patent publication US7947854B2, “Bis-cationic compounds and use thereof” (The University of Sydney, priority 2003, dated 2011)
# Read-outs that look alike come from different tables or passages of the source.
# Experiments:
# [1] = system: secreted phospholipase B (PLB activity); test: Radiometric assay, secreted PLB activity; format: biochemical, Cryptococcus neoformans H99
# Description: (§1) Fungal isolates and media. […] Isolate H99 was kindly supplied by Dr. Gary Cox (Duke University Medical Center, Durham, N.C., USA), and subcultured onto Sabouraud dextrose agar (SDA) at 30° C.
# (§2) Preparation of supernatants containing secreted phospholipase activities. Isolate H99 was grown to confluence on SDA in 16 cm diameter Petri dishes for 72 h at 30° C. in air. Cells scraped from 10-20 dishes were washed sequentially with isotonic saline and imidazole buffer (10 mM imidazole, 2 mM CaCl2, 2 mM Mg Cl2, 56 mM D-Glucose, made up in isotonic saline, pH 5.5), resuspended in a volume of this buffer of about 10% of the cell volume, and incubated for 24 h at 37° C. The cell-free supernatant was separated by centrifugation as previously described and stored at −70° C.
# Radiometric assay method for phospholipases. Enzyme activities were measured as described previously in a final volume of 125 μL at 37° C. For the determination of secreted PLB activity, carrier dipalmitoyl phosphatidylcholine (DPPC, final concentration 800 μM) and 1,2-di[1-^14C] palmitoyl phosphatidylcholine (20,000 dpm) were dried under nitrogen and suspended in 125 mM imidazole acetate buffer (assay buffer, pH 4.0) by sonication using a Branson 450 sonifier. The reaction time was 22 min, using 1 μg total protein and PLB activity was determined by the rate of decrease of the radiolabelled PC substrate, with appearance of the label in free fatty acid. This assay also simultaneously allows for the determination of phospholipase A, C and D activities. These activities were measured by the appearance of radiolabel from PC in Lyso PC, diacylglycerol and phosphatidic acid, respectively.
# (§3) All reactions were terminated by adding 0.5 mL of chloroform:methanol (2:1 v/v). The reaction products were extracted by the method as disclosed in Bligh, E. C. and W. J. Dyer. 1959 ‘A rapid method of total lipid extraction and purification.’ Can. J. Biochem. Physiol. 37:911-917, separated by TLC and quantified as previously described. In the case of PLC activity, the TLC plates were developed in petroleum ether (BP 60-80° C.): diethyl ether: acetic acid (90:15:1, v/v/v) instead of chloroform:methanol:water (65:25:4, v/v/v).
# (§4) Preparation of inhibitors and use in assays. The following compounds were tested (for structures, see FIG. 2): compound 1, 1,12-bis(tributylphosphonium)dodecane dibromide (Fluka AG, Buchs, Switzerland); compound 2, 1,10-bis(tributylammonium)-decane dibromide; compound 3, 1,12-bis(tributylammonium)do-decane dibromide (both synthesised in-house); compound 4, 1,10-bis(trimethylammonium)decane dibromide [“decamethonium”] (Sigma, St. Louis Mo., USA). All compounds were prepared as stock solutions of 700 μM in assay buffer containing 5 mM EDTA, which was then diluted serially with buffer to obtain solutions of 70, 7, 0.7 and 0.07 μM. In each assay, 45 μL of these solutions was used, and the final volume of 125 μL was made up of substrate, enzyme and buffer. The radiometric assay was carried out as above. Inhibition was calculated as the percent of substrates (DPPC or Lyso-PC) remaining in the case of PLB and LPL activities, or of DPPC produced, in the case of the LPTA activity. The amounts converted, or produced, in the inhibitor-free control were normalised to 100%, and the inhibition calculated against it. All assays were done in triplicate.
# (§5) Under these conditions only PLB, LPL and LPTA activities (both secreted and cell-associated) were measured. Initially, compounds deemed to be potential inhibitors were assayed at 25 and 250 μM. Those showing some inhibition were then also assayed at 2.5 and 0.25 μM.
# [2] = system: secreted phospholipase B (LPL/LPTA activities); test: Radiometric assay, secreted LPL and LPTA activities (Lyso assay); format: biochemical, Cryptococcus neoformans H99
# Description: as §1, §2
# Secreted LPL and LPTA activities were measured simultaneously in a reaction mixture containing 1-[^14C]palmitoyl lyso-PC (25,000 dpm) and carrier lyso-PC (final concentration 200 μM) in assay buffer. The reaction time was […] with 1 μg of total protein and LPL activity was measured by the rate of loss of 1-[^14C]palmitoyl lyso-PC with release of radiolabelled fatty acids. LPTA activity was estimated from the rate of formation of radiolabelled PC.
# as §3, §4, §5
# [3] = system: Candida albicans ATCC 10231; test: Antifungal susceptibility testing, microdilution MIC; format: cell-based
# Description: (§6) Antifungal susceptibility testing. The antifingal activity of the compounds was measured by a standard microdilution method. […] The fungal strains tested included Cryptococcus neoformans H99, Cryptococcus neoformans ATCC 90112 and Candida albicans ATCC 10231. All tests were performed in duplicate.
# (§7) A range of cationic compounds were assayed for antifungal activity in a standardised serial dilution sensitivity test against C. neoformans ([…]) and C. Albicans (ATCC 10231).
# [4] = system: Cryptococcus neoformans ATCC 90112; test: as above; format: cell-based
# Description: as §6, §7
# erythrocyte = format: cell-based; details: 37° C., 1 h
# Description: Human blood was collected in 10 mL Vacutainer tubes containing potassium-EDTA as anticoagulant. The blood from each vacutainer was transferred to a 50 mL centrifuge tube and the cells washed three times with calcium- and magnesium-free phosphate buffered saline (PBS) (Gibco) by centrifugation at 2000×g for 15 min. The third supernatant was clear and colourless. Cells were stored in PBS for up to two weeks. The cell suspension in PBS (0.5 mL) was mixed with a stock solution of test substance (0.5 mL) at the appropriate concentration (final erythrocyte concentration of approx. 0.5×10^9 per mL). The mixtures were incubated at 37° C. for 1 h with gentle shaking, then centrifuged at 2000×g for 10 min. The supernatant was diluted 10-fold with PBS and the optical density measured at 540 nm. The values for 0% and 100% lysis were determined by incubating cells with PBS or 0.1% Triton X-100 (in water), respectively. Assays were carried out in triplicate.
# [5] = Table 7, read-out: MIC (μM) C. alb. (10231)
# [6] = Table 7, read-out: MIC (μM) Crypto. (ATCC 90112)
# [7] = Candida albicans, ATCC10231, Table 7, read-out: MIC (μM) C. alb. (10231)
# [8] = Cryptococcus neoformans, ATCC90112, Table 7, read-out: MIC (μM) Crypto. (ATCC 90112)
compound,measurement,setting,value
"CCCCC[N+](CCCCC)(CCCCC)CCCCCCCCCCCC[N+](CCCCC)(CCCCC)CCCCC.[Br-].[Br-] [1,12-Bis-(tripentylammonium)dodecane dibromide]",PLB assay (% inhibition),[1]; 0.25 μM,0%
same,PLB assay (% inhibition),[1]; 2.5 μM,12%
same,PLB assay (% inhibition),[1]; 25 μM,73%
same,PLB assay (% inhibition),[1]; 250 μM,63%
same,Lyso assay (% inhibition) LPL,[2]; 25 μM,250 μM = 10% 25 μM = 10% 2.5 μM = n.d. 0.25 μM = n.d.
same,Lyso assay (% inhibition) LPTA,[2]; 25 μM,0%
same,Lyso assay (% inhibition) LPL,[2]; 250 μM,250 μM = 10% 25 μM = 10% 2.5 μM = n.d. 0.25 μM = n.d.
same,Lyso assay (% inhibition) LPTA,[2]; 250 μM,2.4%
same,MIC,[3]; [5],5.5 µM
same,MIC,[4]; [6],5.5 µM
"CCC[N+](CCC)(CCC)CCCCCCCCCCCC[N+](CCC)(CCC)CCC [1,12-Bis-(tripropylammonium)dodecane dibromide]",PLB assay (% inhibition),[1]; 0.25 μM,5%
same,PLB assay (% inhibition),[1]; 2.5 μM,6%
same,PLB assay (% inhibition),[1]; 6.7 μM,42%
same,PLB assay (% inhibition),[1]; 12.5 μM,68%
same,PLB assay (% inhibition),[1]; 25 μM,71%
same,PLB assay (% inhibition),[1]; 250 μM,80%
same,Lyso assay (% inhibition) LPL,[2]; 0.25 μM,0%
same,Lyso assay (% inhibition) LPTA,[2]; 0.25 μM,0%
same,Lyso assay (% inhibition) LPL,[2]; 2.5 μM,0%
same,Lyso assay (% inhibition) LPTA,[2]; 2.5 μM,0%
same,Lyso assay (% inhibition) LPL,[2]; 25 μM,5%
same,Lyso assay (% inhibition) LPTA,[2]; 25 μM,20%
same,Lyso assay (% inhibition) LPL,[2]; 250 μM,8%
same,Lyso assay (% inhibition) LPTA,[2]; 250 μM,10%
same,MIC,[3]; [7],10 µM
same,MIC,[4]; [8],5.5 µM
"CC[N+](CC)(CC)CCCCCCCCCCCC[N+](CC)(CC)CC [1,12-Bis-(triethylammonium)dodecane dibromide]",MIC,"[3]; Candida albicans, ATCC10231, read-out: MIC (μM) C. alb. (10231)",22 µM
same,MIC,"[4]; Cryptococcus neoformans, ATCC90112, read-out: MIC (μM) Crypto. (ATCC 90112)",11 µM
"CC[N+](CC)(CC)CCOc1cccc(OCC[N+](CC)(CC)CC)c1OCC[N+](CC)(CC)CC [Gallamine triethiodide, reference compound]",MIC,[3]; [7],≥ 350 µM
same,Haemolytic assay (%),erythrocyte; 3.5 μM,350 μM = 0% 175 μM = 0% 88 μM = 0% 35 μM = 0% 3.5 μM = 0%
same,Haemolytic assay (%),erythrocyte; 35 μM,350 μM = 0% 175 μM = 0% 88 μM = 0% 35 μM = 0% 3.5 μM = 0%
same,Haemolytic assay (%),erythrocyte; 88 μM,350 μM = 0% 175 μM = 0% 88 μM = 0% 35 μM = 0% 3.5 μM = 0%
same,Haemolytic assay (%),erythrocyte; 175 μM,350 μM = 0% 175 μM = 0% 88 μM = 0% 35 μM = 0% 3.5 μM = 0%
same,Haemolytic assay (%),erythrocyte; 350 μM,350 μM = 0% 175 μM = 0% 88 μM = 0% 35 μM = 0% 3.5 μM = 0%
"C(CCCCCC[N+]12CCC(CC1)CC2)CCCCC[N+]12CCC(CC1)CC2 [1,12-Bis-(quinuclidinium)dodecane dibromide]",PLB assay (% inhibition),[1]; 0.25 μM,0%
same,PLB assay (% inhibition),[1]; 2.5 μM,0%
same,PLB assay (% inhibition),[1]; 25 μM,0%
same,PLB assay (% inhibition),[1]; 250 μM,5%
same,Lyso assay (% inhibition) LPL,[2]; 0.25 μM,250 μM = 0% 25 μM = 0% 2.5 μM = 0% 0.25 μM = 0%
same,Lyso assay (% inhibition) LPTA,[2]; 0.25 μM,250 μM = 0% 25 μM = 0% 2.5 μM = 0% 0.25 μM = 0%
same,Lyso assay (% inhibition) LPL,[2]; 2.5 μM,250 μM = 0% 25 μM = 0% 2.5 μM = 0% 0.25 μM = 0%
same,Lyso assay (% inhibition) LPTA,[2]; 2.5 μM,250 μM = 0% 25 μM = 0% 2.5 μM = 0% 0.25 μM = 0%
same,Lyso assay (% inhibition) LPL,[2]; 25 μM,250 μM = 0% 25 μM = 0% 2.5 μM = 0% 0.25 μM = 0%
same,Lyso assay (% inhibition) LPTA,[2]; 25 μM,250 μM = 0% 25 μM = 0% 2.5 μM = 0% 0.25 μM = 0%
same,Lyso assay (% inhibition) LPL,[2]; 250 μM,250 μM = 0% 25 μM = 0% 2.5 μM = 0% 0.25 μM = 0%
same,Lyso assay (% inhibition) LPTA,[2]; 250 μM,250 μM = 0% 25 μM = 0% 2.5 μM = 0% 0.25 μM = 0%
same,MIC,[3]; [7],≥ 350 µM
same,MIC,[4]; [8],350 µM
"CCCCCC[N+](CCCCCC)(CCCCCC)CCCCCCCCCCCC[N+](CCCCCC)(CCCCCC)CCCCCC.[Cl-].[Cl-] [1,12-Bis-(trihexylammonium)dodecane dichloride]",MIC,[3]; [5],8.8 µM
same,MIC,[4]; [6],17.5 µM
CCCCCCCCCCCCCCCC[N+](CCCC)(CCCC)CCCC,MIC,[3]; [7],1.4 µM
same,Haemolytic assay (%),erythrocyte; 3.5 μM,2.5%
same,Haemolytic assay (%),erythrocyte; 35 μM,4%
same,Haemolytic assay (%),erythrocyte; 88 μM,19%
same,Haemolytic assay (%),erythrocyte; 175 μM,75%
same,Haemolytic assay (%),erythrocyte; 350 μM,100%
"C[N+]1(CCCCCCCCCCCC[N+]2(C)CCOCC2)CCOCC1 [1,12-Bis-(1-methylmorpholinium)dodecane dibromide]",MIC,[3]; [7],88 µM
same,MIC,[4]; [8],44 µM
"CCCCCCCC[N+](CCCCCCCC)(CCCCCCCC)CCCCCCCCCCCC[N+](CCCCCCCC)(CCCCCCCC)CCCCCCCC.[Cl-].[Cl-] [1,12-Bis-(trioctylammonium)dodecane dichloride]",MIC,[3]; [5],100 µM
same,MIC,[4]; [6],35 µM
"CCCC[N+](CCCC)(CCCC)CCCCCCCCCCC[N+](CCCC)(CCCC)CCCC [1,11-Bis-(tributylammonium)undecane dichloride]",MIC,[3]; [7],44 µM
same,MIC,[4]; [8],22 µM
"C[N+]1(C)CCOC(O)(c2ccc(-c3ccc(C4(O)C[N+](C)(C)CCO4)cc3)cc2)C1 (centres unmarked) [Hemicholinium dibromide, reference compound]",MIC,[3]; [7],≥ 350 µM
same,Haemolytic assay (%),erythrocyte; 3.5 μM,350 μM = 0% 175 μM = 0% 88 μM = 0% 35 μM = 0% 3.5 μM = 0%
same,Haemolytic assay (%),erythrocyte; 35 μM,350 μM = 0% 175 μM = 0% 88 μM = 0% 35 μM = 0% 3.5 μM = 0%
same,Haemolytic assay (%),erythrocyte; 88 μM,350 μM = 0% 175 μM = 0% 88 μM = 0% 35 μM = 0% 3.5 μM = 0%
same,Haemolytic assay (%),erythrocyte; 175 μM,350 μM = 0% 175 μM = 0% 88 μM = 0% 35 μM = 0% 3.5 μM = 0%
same,Haemolytic assay (%),erythrocyte; 350 μM,350 μM = 0% 175 μM = 0% 88 μM = 0% 35 μM = 0% 3.5 μM = 0%
